Test results from patent publication US20250041294A1, “Synergistic compositions for use in the treatment of cancer” (Sartar Therapeutics Oy, priority 2021, published 2025).

Experiments:
Assay type in all cases: cell-based
[1] = tested on: GIST882, SA4, and GOT3 cell lines; assay: Drug combination testing with concentration matrices, SynergyFinder 2.0 (all three cell lines); conditions: drug concentration matrices and SynergyFinder 2.0, with or without Anagrelide
Method: Drug combination testing with anagrelide and 12 selected drugs was performed as described above but with selected drugs using drug concentration matrices covering seven different concentrations with 3 replicate sample of each combinations and in two replicate assays. Synergy was assessed using an R package SynergyFinder 2.0 (Ianevski A, et al. 2020). The tool implements synergy scoring with four major reference models: HSA, Loewe, Bliss and ZIP models. The degree of a drug combination effect can be readily visualized as a synergy landscape map over the dose matrix and ZIP synergy score.

[2] = tested on: GOT3 and SA4 cell lines; assay: High throughput drug sensitivity and resistance test, average over cell lines (anagrelide combination); conditions: anagrelide combination, average of SA4 and GOT3; aDSS higher than 3.0 = synergy
How it was run: (§1)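 Compounds were plated in 10-fold dilutions spanning a 10,000-fold range, alone or with anagrelide (100 nM; SA4, GOT3) or BAY2666605 (40 nM; GIST882, SA4, GOT3). Viability was read by CellTiter-Glo after 72 h and normalized to DMSO and benzethonium chloride controls. Responses were expressed as DSS from four-parameter fits, and the single-agent DSS was subtracted from the combination DSS.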

[3] = tested on: GIST882, SA4 and GOT3 cell lines; assay: Cell viability assay (96 well, CellTiter-Glo, 72 hours); conditions: for synergy with DNMDP (in words): FIGS. 7-8; for synergy with Bcl-family inhibitor A-1155463 (in words): FIG. 2, cell line not stated
Method: Cell viability assay. Cells were plated on 96 Well White/Clear Tissue Culture Treated Plate (FALCON, 353377) 24 hours prior to medium change with drugs. Viabilities of cells in different treatments were evaluated 72 hours after treatment incubation with CellTiter-Glo® Luminescent Cell Viability Assay (G7572, Promega) following manufacturer's instruction. Reagent and cells stabilized to room temperature. Reagent added 100 μl/well, shaken for 2 minutes at room temperature and incubated for 10 min at room temperature before measuring the luminescence by using Hidex Sence microplate reader (Hidex oy). Growth medium was used to exclude background signal from the results.

[4] = tested on: GOT3 cell line; assay: High throughput drug sensitivity and resistance test (CellTiter-Glo, 72 hours); conditions: GOT3; for GOT3 cell line: DSS(combo (BAY2666605))-DSS(drug): drug combined with BAY2666605 (40 nM) minus drug alone; for GOT3 cell line: DSS(combo (anagrelide))-DSS(drug): drug combined with anagrelide hydrochloride (100 nM) minus drug alone
How it was run: as §1

[5] = tested on: SA4 cell line; assay: as above; conditions: SA4; for SA4 cell line: DSS(combo (BAY2666605))-DSS(drug): drug combined with BAY2666605 (40 nM) minus drug alone; for SA4 cell line: DSS(combo (anagrelide))-DSS(drug): drug combined with anagrelide hydrochloride (100 nM) minus drug alone
How it was run: as §1

[6] = tested on: GIST882 cell line; assay: as above; conditions: drug combined with BAY2666605 (40 nM) minus drug alone
How it was run: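 GIST882 viability read by CellTiter-Glo after 72 h, normalized to 0.01% DMSO and 100 μmol/L benzethonium chloride. Compounds also combined with 40 nM BAY2666605. Four-parameter logistic curves; response as drug sensitivity score, with synergy as combination DSS minus single-agent DSS.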

[7] = tested on: GOT3 cell line; assay: Drug combination testing with concentration matrices, SynergyFinder 2.0; conditions: combination with anagrelide, seven-concentration matrices
Method: (§2) Drug combination testing with anagrelide and 12 selected drugs was performed as described above but with selected drugs using drug concentration matrices covering seven different concentrations with 3 replicate sample of each combinations and in two replicate assays. […] The tool implements synergy scoring with four major reference models: HSA, Loewe, Bliss and ZIP models. The degree of a drug combination effect can be readily visualized as a synergy landscape map over the dose matrix and ZIP synergy score.

[8] = tested on: GIST882 cell line; assay: as above; conditions: combination with anagrelide, seven-concentration matrices
Method: as §2

[9] = tested on: SA4 cell line; assay: as above; conditions: combination with anagrelide, seven-concentration matrices
Method: as §2

[10] = tested on: GIST882, GOT3 and SA4 cell lines; assay: High throughput drug sensitivity and resistance test, average over cell lines (BAY2666605 combination); conditions: for Average DSS (aDSS): BAY2666605 combination, average of GIST882, SA4 and GOT3, aDSS higher than 3.0 = synergy; for synergy in high-throughput screening (in words): with anagrelide (GOT3, SA4) or BAY2666605 (GIST882, GOT3, SA4)
How it was run: as §1

[11] = treated together with 3-hydroxy-anagrelide, FIGS. 5 and 6
[12] = treated together with Anagrelide, FIGS. 3 and 4

Row | Structure (SMILES) | efficacy in cell lines (in words) [1] | Average DSS (aDSS) [2] | synergy with DNMDP (in words) [3] | cell viability, combination result (in words) [3, 11] | cell viability, combination result (in words) [3, 12] | GOT3 cell line: DSS(combo (BAY2666605))-DSS(drug) [4] | GOT3 cell line: DSS(combo (anagrelide))-DSS(drug) [4] | SA4 cell line: DSS(combo (BAY2666605))-DSS(drug) [5] | SA4 cell line: DSS(combo (anagrelide))-DSS(drug) [5] | GIST882 cell line: DSS(combo (BAY2666605))-DSS(drug) [6] | Average ZIP synergy score [7] | Average ZIP synergy score [8] | Average ZIP synergy score [9] | Average DSS (aDSS) [10] | synergy in high-throughput screening (in words) [10] | synergy with Bcl-family inhibitor A-1155463 (in words) [3] | synergy with Bcl-family inhibitor A-1155463 (in words) ([3]; listed as cilostazol)
1 | CN(C)CC#Cc1ccc(OCCCc2sc(N3CCc4cccc(C(=O)Nc5nc6ccccc6s5)c4C3)nc2C(=O)O)c(F)c1 [A-1155463] | significant efficacy in cell lines only when they were administered with Anagrelide | 14.85 | showed synergy with DNMDP | verified the result | verified the result | 6.9 | 7.5 | −3.6 | 22.2 | 23 | 12.7 | 15.5 | 11.1 | 8.8 | synergistic |  | 
2 | O=C1CCc2cc(OCCCCc3nnnn3C3CCCCC3)ccc2N1 [Cilostazol] |  |  |  |  |  |  |  |  |  |  |  |  |  |  |  | does not show synergy | not however achieved
3 | Cc1c(-c2ccc(N3CCc4cccc(C(=O)Nc5nc6ccccc6s5)c4C3)nc2C(=O)O)cnn1CC12CC3CC(CC(C3)C1)C2 [A-1331852] | significant efficacy in cell lines only when they were administered with Anagrelide | 9.25 |  |  |  | 2.8 | 3.6 | 12.6 | 14.9 | 15.1 | 11.6 | 9.6 | 11.1 | 10.2 | synergistic |  | 
4 | CC1(C)CCC(c2ccc(Cl)cc2)=C(CN2CCN(c3ccc(C(=O)NS(=O)(=O)c4ccc(N[C@H](CCN5CCOCC5)CSc5ccccc5)c(S(=O)(=O)C(F)(F)F)c4)cc3)CC2)C1 [Navitoclax, navitoclax] | significant efficacy in cell lines only when they were administered with Anagrelide | 10 | showed synergy with DNMDP | verified the result | verified the result | 1.7 | 2.6 | 28.5 | 17.4 | 20.7 | 2.4 | 11.7 | 8 | 17.0 | synergistic |  | 
